{
  "source": "ChEMBL document CHEMBL5465560",
  "about": "“Selectivity Literature for EUbOPEN Chemogenomic Library” (2024)",
  "key": {"[1]": {"biological_target": "Rho-associated protein kinase 1 (Homo sapiens) (UniProt Q13464)", "sequence (Q13464 2-1354 limits assumed)": "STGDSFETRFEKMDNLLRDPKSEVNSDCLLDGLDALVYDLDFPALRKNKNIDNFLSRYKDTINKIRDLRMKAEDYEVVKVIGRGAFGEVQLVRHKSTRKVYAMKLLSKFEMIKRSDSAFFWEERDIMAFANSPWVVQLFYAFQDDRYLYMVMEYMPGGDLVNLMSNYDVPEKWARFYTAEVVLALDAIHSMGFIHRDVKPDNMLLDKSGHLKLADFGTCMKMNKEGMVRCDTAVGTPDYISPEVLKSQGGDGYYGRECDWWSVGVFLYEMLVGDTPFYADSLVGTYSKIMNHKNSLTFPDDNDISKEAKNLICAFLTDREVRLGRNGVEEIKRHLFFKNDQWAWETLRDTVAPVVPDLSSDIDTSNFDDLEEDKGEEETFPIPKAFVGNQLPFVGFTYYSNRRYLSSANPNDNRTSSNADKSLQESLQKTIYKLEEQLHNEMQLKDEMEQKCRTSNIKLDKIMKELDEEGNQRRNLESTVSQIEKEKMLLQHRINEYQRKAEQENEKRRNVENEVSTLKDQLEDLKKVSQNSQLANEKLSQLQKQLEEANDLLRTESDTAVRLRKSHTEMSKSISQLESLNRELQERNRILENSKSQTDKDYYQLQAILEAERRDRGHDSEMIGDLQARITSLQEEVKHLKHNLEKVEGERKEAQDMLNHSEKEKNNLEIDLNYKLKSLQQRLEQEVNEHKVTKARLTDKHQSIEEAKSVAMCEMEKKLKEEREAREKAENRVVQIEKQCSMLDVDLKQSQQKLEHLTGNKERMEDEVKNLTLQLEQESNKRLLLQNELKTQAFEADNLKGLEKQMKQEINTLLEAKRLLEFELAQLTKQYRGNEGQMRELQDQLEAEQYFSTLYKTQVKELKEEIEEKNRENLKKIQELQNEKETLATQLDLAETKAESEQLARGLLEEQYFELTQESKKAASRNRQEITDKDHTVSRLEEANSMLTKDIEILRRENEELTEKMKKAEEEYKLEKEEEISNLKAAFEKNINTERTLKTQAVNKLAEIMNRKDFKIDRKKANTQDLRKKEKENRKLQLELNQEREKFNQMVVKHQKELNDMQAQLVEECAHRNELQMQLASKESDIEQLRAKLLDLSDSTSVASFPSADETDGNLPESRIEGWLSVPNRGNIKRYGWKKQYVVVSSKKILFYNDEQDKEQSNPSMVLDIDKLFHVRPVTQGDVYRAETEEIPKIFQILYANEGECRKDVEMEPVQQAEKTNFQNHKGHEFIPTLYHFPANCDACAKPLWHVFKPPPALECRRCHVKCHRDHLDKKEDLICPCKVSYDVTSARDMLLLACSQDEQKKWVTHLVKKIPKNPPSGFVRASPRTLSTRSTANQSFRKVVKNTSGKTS", "assay": "Selectivity interaction (Kinase panel (literature)) EUB0001199aCl ROCK1", "settings": "at 1 µM"}, "[2]": {"biological_target": "Tyrosine-protein kinase Yes (Homo sapiens) (UniProt P07947)", "assay": "Selectivity interaction (KinomeScan (DiscoverX)) EUB0000229b YES1", "settings": "at 10 µM"}, "[3]": {"biological_target": "Serine/threonine-protein kinase OSR1 (Homo sapiens) (UniProt O95747)", "assay": "Selectivity interaction (KinomeScan (DiscoverX)) EUB0001079a OXSR1", "settings": "at 1 µM"}, "[4]": {"biological_target": "Insulin-like growth factor 1 receptor (Homo sapiens, UniProt P08069)", "assay": "Selectivity interaction (KinomeScan (DiscoverX)) EUB0001079a IGF1R", "settings": "at 1 µM"}, "[5]": {"biological_target": "Mitogen-activated protein kinase 11 (Homo sapiens) (UniProt Q15759)", "assay": "Selectivity interaction (KinomeScan (DiscoverX)) EUB0001079a MAPK11", "settings": "at 1 µM"}, "[6]": {"biological_target": "T1, Tyrosine-protein kinase ABL1 (Homo sapiens, UniProt P00519)", "T1 sequence (P00519 whole entry)": "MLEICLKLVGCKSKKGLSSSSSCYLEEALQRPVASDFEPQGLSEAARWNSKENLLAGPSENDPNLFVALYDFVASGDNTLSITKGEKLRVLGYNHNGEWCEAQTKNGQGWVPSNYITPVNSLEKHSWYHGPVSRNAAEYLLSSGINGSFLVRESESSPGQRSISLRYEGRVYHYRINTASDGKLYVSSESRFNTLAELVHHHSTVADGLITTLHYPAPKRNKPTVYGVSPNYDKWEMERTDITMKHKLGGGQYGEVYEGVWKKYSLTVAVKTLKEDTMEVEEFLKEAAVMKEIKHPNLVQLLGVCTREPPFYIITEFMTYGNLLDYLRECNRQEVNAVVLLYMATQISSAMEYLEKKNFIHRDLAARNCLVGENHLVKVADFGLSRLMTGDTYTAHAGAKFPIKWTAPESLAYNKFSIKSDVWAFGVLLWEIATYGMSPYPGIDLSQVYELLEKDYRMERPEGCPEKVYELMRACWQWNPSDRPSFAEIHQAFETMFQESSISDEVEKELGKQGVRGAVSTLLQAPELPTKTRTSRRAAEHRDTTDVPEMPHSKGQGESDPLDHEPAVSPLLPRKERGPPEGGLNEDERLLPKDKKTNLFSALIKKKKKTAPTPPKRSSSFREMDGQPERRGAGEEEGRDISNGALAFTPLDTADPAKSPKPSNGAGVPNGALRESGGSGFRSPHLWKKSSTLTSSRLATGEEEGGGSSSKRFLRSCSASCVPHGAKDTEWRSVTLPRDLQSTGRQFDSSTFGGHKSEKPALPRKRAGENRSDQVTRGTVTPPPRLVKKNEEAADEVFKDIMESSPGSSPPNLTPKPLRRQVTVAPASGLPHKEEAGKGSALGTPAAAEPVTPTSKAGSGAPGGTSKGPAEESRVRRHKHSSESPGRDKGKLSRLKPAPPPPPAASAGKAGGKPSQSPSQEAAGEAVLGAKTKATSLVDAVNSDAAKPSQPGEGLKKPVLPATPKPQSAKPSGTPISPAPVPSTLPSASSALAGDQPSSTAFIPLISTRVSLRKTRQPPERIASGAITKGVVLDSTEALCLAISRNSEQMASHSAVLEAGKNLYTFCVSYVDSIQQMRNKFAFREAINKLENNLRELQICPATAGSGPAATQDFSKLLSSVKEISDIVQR", "assay": "Selectivity interaction (Kinase panel (KiNativ target engagement assay in Jurkat cells)) EUB0001635a ABL1", "format": "cell-based", "settings": "Selectivity number of off-targets 0.0, Selectivity number of targets 233.0, Source Knowledge https://www.sciencedirect.com/science/article/pii/S2451945619300674?via%3Dihub, at 1 µM"}, "[7]": {"biological_target": "T1, Tyrosine-protein kinase ABL1", "assay": "Selectivity interaction (KinomeScan (DiscoverX)) EUB0000045b ABL1", "settings": "at 1 µM"}, "[8]": {"biological_target": "Serine/threonine-protein kinase pim-3 (Homo sapiens) (UniProt Q86V86)", "assay": "Selectivity interaction (KinomeScan (DiscoverX)) EUB0000045b PIM3"}, "[9]": {"biological_target": "Cyclin-dependent kinase 18 (Homo sapiens) (UniProt Q07002)", "sequence (Q07002 whole entry)": "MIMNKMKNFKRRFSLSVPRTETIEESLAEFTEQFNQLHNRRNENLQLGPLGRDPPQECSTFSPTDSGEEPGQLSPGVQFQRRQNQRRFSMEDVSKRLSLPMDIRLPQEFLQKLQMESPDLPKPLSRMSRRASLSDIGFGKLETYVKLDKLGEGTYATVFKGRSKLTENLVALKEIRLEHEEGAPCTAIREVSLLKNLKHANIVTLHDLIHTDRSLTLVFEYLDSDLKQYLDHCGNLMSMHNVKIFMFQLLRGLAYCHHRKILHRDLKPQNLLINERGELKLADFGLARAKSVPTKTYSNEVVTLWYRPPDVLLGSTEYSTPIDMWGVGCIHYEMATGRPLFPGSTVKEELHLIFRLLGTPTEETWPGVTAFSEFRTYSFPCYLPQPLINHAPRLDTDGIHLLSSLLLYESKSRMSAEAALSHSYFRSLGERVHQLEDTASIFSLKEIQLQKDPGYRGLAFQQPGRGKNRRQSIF", "settings": "at 10 µM"}, "[10]": {"biological_target": "Serine/threonine-protein kinase 38-like (Homo sapiens) (UniProt Q9Y2H1)", "settings": "at 10 µM"}, "[11]": {"biological_target": "Dual specificity tyrosine-phosphorylation-regulated kinase 1B (Homo sapiens, UniProt Q9Y463)", "assay": "Selectivity interaction (KinomeScan (DiscoverX)) EUB0001619a DYRK1B", "settings": "at 1 µM"}, "[12]": {"biological_target": "T2, Ephrin type-A receptor 1 (Homo sapiens) (UniProt P21709)", "T2 sequence (whole entry)": "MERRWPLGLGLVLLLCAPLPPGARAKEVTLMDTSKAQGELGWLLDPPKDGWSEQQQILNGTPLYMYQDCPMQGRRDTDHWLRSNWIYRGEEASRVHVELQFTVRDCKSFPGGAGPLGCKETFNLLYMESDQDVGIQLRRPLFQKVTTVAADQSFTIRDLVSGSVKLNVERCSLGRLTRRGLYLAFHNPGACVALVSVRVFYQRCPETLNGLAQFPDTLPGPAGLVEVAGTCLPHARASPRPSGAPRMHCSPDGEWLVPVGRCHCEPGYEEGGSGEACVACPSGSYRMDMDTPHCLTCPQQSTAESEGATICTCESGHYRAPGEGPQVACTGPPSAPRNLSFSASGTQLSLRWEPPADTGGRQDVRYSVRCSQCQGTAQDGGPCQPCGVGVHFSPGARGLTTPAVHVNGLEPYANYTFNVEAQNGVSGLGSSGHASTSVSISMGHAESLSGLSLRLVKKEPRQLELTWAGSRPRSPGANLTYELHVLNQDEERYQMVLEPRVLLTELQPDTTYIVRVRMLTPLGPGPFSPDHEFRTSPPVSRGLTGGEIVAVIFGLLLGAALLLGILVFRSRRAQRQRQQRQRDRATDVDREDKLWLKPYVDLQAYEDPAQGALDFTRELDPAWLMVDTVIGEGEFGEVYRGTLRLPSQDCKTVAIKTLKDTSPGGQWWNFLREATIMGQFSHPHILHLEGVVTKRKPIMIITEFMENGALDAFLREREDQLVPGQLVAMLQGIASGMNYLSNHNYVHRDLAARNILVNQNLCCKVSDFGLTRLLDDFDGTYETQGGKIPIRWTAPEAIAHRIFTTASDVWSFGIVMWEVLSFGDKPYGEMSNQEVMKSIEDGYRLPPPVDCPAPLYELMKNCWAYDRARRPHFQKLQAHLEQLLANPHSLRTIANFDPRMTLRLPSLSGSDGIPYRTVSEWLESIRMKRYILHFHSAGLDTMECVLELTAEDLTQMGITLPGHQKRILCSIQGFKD", "assay": "Selectivity interaction (SelectScreen profiling (Invitrogen)) EUB0000607a EPHA1", "settings": "at 2 µM"}, "[13]": {"biological_target": "T3, Serine/threonine-protein kinase DCLK2 (Homo sapiens) (UniProt Q8N568)", "T3 sequence (whole entry)": "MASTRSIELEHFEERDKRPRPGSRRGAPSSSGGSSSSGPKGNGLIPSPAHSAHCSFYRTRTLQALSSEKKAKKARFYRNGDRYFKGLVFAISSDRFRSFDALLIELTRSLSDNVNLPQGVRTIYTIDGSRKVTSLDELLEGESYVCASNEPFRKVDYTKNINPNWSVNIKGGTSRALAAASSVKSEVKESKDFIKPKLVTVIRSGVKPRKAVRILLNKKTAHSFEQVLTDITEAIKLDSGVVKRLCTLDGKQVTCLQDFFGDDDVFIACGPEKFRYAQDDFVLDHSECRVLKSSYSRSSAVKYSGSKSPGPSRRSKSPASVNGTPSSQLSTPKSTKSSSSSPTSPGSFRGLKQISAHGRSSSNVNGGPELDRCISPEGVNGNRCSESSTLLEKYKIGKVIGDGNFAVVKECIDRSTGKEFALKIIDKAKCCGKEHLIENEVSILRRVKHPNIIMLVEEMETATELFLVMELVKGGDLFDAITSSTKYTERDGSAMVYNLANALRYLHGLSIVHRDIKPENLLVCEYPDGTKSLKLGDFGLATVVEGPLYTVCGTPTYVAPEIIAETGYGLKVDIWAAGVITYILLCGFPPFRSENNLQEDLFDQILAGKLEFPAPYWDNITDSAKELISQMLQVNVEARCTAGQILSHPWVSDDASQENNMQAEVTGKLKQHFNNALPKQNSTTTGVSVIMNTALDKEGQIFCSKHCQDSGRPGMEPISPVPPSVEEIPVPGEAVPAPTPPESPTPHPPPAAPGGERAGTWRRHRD", "assay": "Selectivity interaction (SelectScreen profiling (Invitrogen)) EUB0000607a DCLK2", "settings": "at 2 µM"}, "[14]": {"biological_target": "Histone-lysine N-methyltransferase SUV39H2 (Homo sapiens) (UniProt Q9H5I1)", "sequence (Q9H5I1 whole entry)": "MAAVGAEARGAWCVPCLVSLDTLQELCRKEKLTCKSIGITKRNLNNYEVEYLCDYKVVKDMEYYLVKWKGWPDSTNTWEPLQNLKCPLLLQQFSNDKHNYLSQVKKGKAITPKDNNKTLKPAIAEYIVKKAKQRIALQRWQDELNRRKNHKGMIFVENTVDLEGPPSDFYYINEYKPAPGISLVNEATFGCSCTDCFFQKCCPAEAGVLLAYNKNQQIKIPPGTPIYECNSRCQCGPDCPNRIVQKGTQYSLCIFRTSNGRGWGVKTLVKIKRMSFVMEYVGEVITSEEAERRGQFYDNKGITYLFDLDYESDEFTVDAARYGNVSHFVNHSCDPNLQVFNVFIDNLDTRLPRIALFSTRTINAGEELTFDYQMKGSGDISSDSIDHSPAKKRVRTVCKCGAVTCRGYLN", "assay": "Selectivity interaction (Methyltransferase screen (radiometric assays, panel of 8 PRMTs, 21 protein lysine methyltransferases, 3 DNA methyltransferases, and one RNA methyltransferase)) EUB0000272b SUV39H2"}, "[15]": {"biological_target": "Tyrosine-protein kinase JAK1 (Homo sapiens, UniProt P23458)", "sequence (P23458 whole entry)": "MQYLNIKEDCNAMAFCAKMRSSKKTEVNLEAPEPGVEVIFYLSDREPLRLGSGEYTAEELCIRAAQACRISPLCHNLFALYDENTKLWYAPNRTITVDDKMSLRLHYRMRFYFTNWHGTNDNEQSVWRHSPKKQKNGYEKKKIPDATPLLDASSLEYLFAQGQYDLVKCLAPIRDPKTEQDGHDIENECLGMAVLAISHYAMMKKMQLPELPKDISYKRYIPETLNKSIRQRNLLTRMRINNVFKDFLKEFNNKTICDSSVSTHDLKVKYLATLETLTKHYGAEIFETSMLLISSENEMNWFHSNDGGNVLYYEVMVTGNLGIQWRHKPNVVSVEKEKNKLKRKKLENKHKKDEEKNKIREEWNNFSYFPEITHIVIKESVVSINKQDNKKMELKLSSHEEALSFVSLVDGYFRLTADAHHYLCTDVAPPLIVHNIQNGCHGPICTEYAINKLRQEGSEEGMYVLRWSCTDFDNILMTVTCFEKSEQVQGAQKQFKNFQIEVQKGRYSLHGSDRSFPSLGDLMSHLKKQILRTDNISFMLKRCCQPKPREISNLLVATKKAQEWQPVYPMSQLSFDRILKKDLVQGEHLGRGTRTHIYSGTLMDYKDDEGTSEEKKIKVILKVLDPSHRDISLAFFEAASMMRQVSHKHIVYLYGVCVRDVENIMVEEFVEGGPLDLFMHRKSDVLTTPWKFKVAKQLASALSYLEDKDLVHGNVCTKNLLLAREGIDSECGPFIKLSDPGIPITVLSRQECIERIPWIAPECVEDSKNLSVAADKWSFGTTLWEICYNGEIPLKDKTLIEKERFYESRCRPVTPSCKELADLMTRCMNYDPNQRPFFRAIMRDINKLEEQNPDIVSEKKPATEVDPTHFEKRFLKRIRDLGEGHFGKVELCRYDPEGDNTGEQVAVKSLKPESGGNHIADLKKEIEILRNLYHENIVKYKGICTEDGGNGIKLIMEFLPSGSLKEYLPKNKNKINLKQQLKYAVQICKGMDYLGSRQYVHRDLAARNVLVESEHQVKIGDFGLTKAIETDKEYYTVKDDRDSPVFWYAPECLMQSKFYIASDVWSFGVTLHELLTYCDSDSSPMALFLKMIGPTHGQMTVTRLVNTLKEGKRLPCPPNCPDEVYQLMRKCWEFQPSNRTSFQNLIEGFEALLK", "assay": "Selectivity interaction (KinomeScan (DiscoverX)) EUB0001868a JAK1", "settings": "at 1 µM"}},
  "data": [
    {"smiles": "CN1Cc2nccc(-c3cn(C)nc3-c3ccc(F)cc3)c2C1=O", "values": [
      {"measurement": "% of inhibition", "setting": "[1]", "result": -3, "unit": "%"}
    ]},
    {"smiles": "COc1cc(N(C)c2ccnc3ccc(C(F)(F)F)cc23)cc(OC)c1OC", "values": [
      {"measurement": "% binding", "setting": "[2]", "result": 83, "unit": "%"}
    ]},
    {"smiles": "Nc1cnc(N2CCc3cc(S(=O)(=O)Nc4c(F)cc(Cl)cc4F)cc(N4CCCC4=O)c32)nc1", "note": "[TP-020n]", "values": [
      {"measurement": "% of control", "setting": "[3]", "result": 75, "unit": "%"},
      {"measurement": "% of control", "setting": "[4]", "result": 90, "unit": "%"},
      {"measurement": "% of control", "setting": "[5]", "result": 100, "unit": "%"}
    ]},
    {"smiles": "C=CC(=O)Nc1ccc(C(=O)Nc2[nH]nc3c2CN(C(=O)N[C@H](CN(C)C)c2ccccc2)C3(C)C)cc1", "values": [
      {"measurement": "% of engagement", "setting": "[6]", "result": -19.4, "unit": "%"}
    ]},
    {"smiles": "C=CC(=O)Nc1cc(-n2c(=O)ccc3cnc4ccc(-c5ccc(NS(C)(=O)=O)cc5)cc4c32)ccc1C", "values": [
      {"measurement": "% of control", "setting": "[7]", "result": 100, "unit": "%"},
      {"measurement": "% of control", "setting": "[8]; at 1 µM", "result": 83, "unit": "%"},
      {"measurement": "% of control", "setting": "[8]; at 10 µM", "result": 82, "unit": "%"}
    ]},
    {"smiles": "Cc1cc([C@@H](C)Nc2ccccc2C(=O)O)c2nc(N3CCOCC3)cc(=O)n2c1", "note": "[AZD-6482]", "values": [
      {"measurement": "% of control", "setting": "[9]", "result": 100, "unit": "%"},
      {"measurement": "% of control", "setting": "[10]", "result": 94, "unit": "%"}
    ]},
    {"smiles": "N#Cc1cccc(-c2c[nH]c3ncnc(N4CCOCC4)c23)c1", "values": [
      {"measurement": "% of control", "setting": "[11]", "result": 70, "unit": "%"}
    ]},
    {"smiles": "CNC(=O)Nc1ccc(-c2nc(N3CC4CCC(C3)O4)c3cnn(C4CCC5(CC4)OCCO5)c3n2)cc1", "values": [
      {"measurement": "% of inhibition", "setting": "[12]", "result": 3, "unit": "%"},
      {"measurement": "% of inhibition", "setting": "[13]", "result": 2, "unit": "%"}
    ]},
    {"smiles": "Cc1cc(C)cc([C@H]2c3cc(C)ccc3NC(=O)CN2C(=O)c2ccc(Br)s2)c1", "values": [
      {"measurement": "% of activity", "setting": "[14]; at 1 µM", "result": 99.7, "unit": "%"},
      {"measurement": "% of activity", "setting": "[14]; at 10 µM", "result": 98, "unit": "%"}
    ]},
    {"smiles": "Cc1cc(-c2ccnc(Nc3cnn(C)c3)n2)ccc1CNC(=O)N1CC(OC(C)C)C1", "values": [
      {"measurement": "% of control", "setting": "[15]", "result": 29, "unit": "%"}
    ]}
  ]
}
